# Assay results reported in paper PMC10108742, “Design, synthesis and evaluation of OA-tacrine hybrids as cholinesterase inhibitors with low neurotoxicity and hepatotoxicity against Alzheimer’s disease” (Journal of Enzyme Inhibition and Medicinal Chemistry, 2023).
# Where two headings read alike, the source gives them in different places.
# Tests used:
# hAChE = target: T1, hAChE (Homo sapiens, UniProt P22303); test: biochemical
# T1 construct: purchased Sigma Aldrich
# Description: (§1) The capacity of all the target compounds to inhibit hAChE and hBuChE activities were assessed by Ellman’s method. […] Results are expressed as the mean ± SD of at least three different experiments performed in triplicate.
# Buffer was freshly prepared and stored in the refrigerator. […] All solutions were stored in Eppendorf caps in the refrigerator or freezer, if necessary. […] The final concentrations for the enzymatic assay were yielded by diluting the stock solution with bi-distilled water.
# (§2) A mixture of the DTNB solution (160 µL), enzyme solution (50 µL) and compounds solutions (10 µL, 3 different concentrations and once blank water) was prepared and incubated at 37 °C for 10 min. The substrate (30 µL) was added to start the enzymatic reaction. […] All measurements were performed as triplicates.
# hBuChE = target: T2, hBuChE (Homo sapiens, UniProt P06276); test: hBuChE inhibition, Ellman's method; type: biochemical; settings: hBuChE from human serum, mean ± SD of three experiments
# T2 construct: purchased Sigma Aldrich
# Description: as §1, with “hAChE, hBuChE, Acetylcholinesterase Activity Assay Kit and Butyrylcholinesterase Activity Assay Kit were purchased from Sigma Aldrich. […] The” for “The”
# Preparation of 50 mM Tris–HCl buffer solutions: 5 ml Tris solution (1 M, Ph 8.5, Beyotime Biotechnology) was dissolved in distilled water (95 ml) and adjusted with HCl to a pH of 8.0 ± 0.1. Buffer was freshly prepared and stored in the refrigerator. […] All solutions were stored in Eppendorf caps in the refrigerator or freezer, if necessary. […] The final concentrations for the enzymatic assay were yielded by diluting the stock solution with bi-distilled water.
# as §2
# HepG2 cells [1] = test: Apoptosis in HepG2 cells, AnnexinV/PI double staining, flow cytometry; settings: 50 μM, 24 h, control group 4.34%
# Description: Figure 6. […] Apoptotic cells detected by flow cytometry after AnnexinV and PI double staining.
# Annexin V-FITC and propidium iodide were used to evaluate apoptotic cells by flow cytometry. Cells were treated with different concentrations of tested compounds for 24 h. Then the cells were washed twice with phosphate-buffered saline (PBS) (centrifugation at 2000 rpm, 5 min). The collected cells were then resuspended in 500 μL of binding buffer. After stained with 5 μL AnnexinV-FITC and 5 μL propidium iodide at room temperature for 15 min. Cells were then analysed by BD Accuri C6 flow cytometer with cell quest software (Becton & Dickinson Company, Franklin Lakes, NJ). Cells undergoing apoptosis are both Annexin V positive and PI negative.
# HepG2 cells [2] = test: Intracellular ROS production in HepG2 cells, DCFH-DA, flow cytometry; settings: 50 μM, compared with control / tacrine group
# Description: The percentage of cells for ROS was stained with DCFH-DA and the stained cells were immediately determined by flow cytometry.
# The level of intracellular ROS was measured by using the ROS-sensitive dye, 2′,7′-dichloro-fluorescein diacetate (DCFH-DA), as a probe. In brief, cells were seeded in six-well plates at 2.0 × 10^5 cells/well, treating with different tested compounds for 24 h, and then washed three times and incubated with final concentration of 10 μM DCFH-DA for 30 min at 37 °C in the dark. After incubation, cells were washed three times and harvested in free-serum medium. […] Data were processed by using cell quest software (Becton & Dickinson Company, Franklin Lakes, NJ).
# SH-SY5Y cells = test: Cell viability in SH-SY5Y cells, CCK-8 assay; settings: 24 h
# Description: (§3) Figure 5. Effects of various concentrations of compounds on cell viability in SH-SY5Y cells and HepG2 cells after treatment for 24 h. Cell viability was measured by CCK-8 assay. Data were shown as mean ± SD of three independent experiments.
# (§4) HepG2 and SH-SY5Y cells were obtained from the Cell Bank of Shanghai Institute of Biochemistry and Cell Biology, Chinese Academy of Sciences (Shanghai, China). HepG2 and SH-SY5Y cells were cultured in MEM or MEM/F12 supplemented with 10% FBS, 100 units mL^−1 penicillin/streptomycin and maintained in a humidified atmosphere of 5% CO2 at 37 °C. Initially, 8000 cells per well were seeded in 96-well plates for HepG2 or SH-SY5Y cells, then treated with vehicle alone or tested compounds for 24 h. Then 10 μL CCK8 purchased from CELLCOOK was added to each well and further incubated for another 3 h. The absorbance was measured using a microplate reader (450 nm).
# HepG2 cells [3] = test: Cell viability in HepG2 cells, CCK-8 assay; settings: 24 h
# Description: as §3, §4
# [4] = hAChE from human erythrocytes, mean ± SD of three experiments
# T1 sequence (P22303 32-614): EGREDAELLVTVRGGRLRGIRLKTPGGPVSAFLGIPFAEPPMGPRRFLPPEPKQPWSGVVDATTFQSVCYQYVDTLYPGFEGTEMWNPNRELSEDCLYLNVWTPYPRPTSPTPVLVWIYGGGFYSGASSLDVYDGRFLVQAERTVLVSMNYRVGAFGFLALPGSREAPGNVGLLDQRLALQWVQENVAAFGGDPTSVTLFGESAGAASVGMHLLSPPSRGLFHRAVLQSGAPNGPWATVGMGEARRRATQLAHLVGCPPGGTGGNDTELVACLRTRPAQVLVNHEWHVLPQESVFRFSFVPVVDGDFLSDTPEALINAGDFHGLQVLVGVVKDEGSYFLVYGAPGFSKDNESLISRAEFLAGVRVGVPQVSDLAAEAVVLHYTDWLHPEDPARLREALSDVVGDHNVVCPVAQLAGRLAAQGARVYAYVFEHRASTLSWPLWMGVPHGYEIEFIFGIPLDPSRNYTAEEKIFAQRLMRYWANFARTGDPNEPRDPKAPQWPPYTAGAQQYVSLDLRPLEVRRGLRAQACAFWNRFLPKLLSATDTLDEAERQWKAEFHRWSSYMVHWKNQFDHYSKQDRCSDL
# T2 sequence (P06276 29-602): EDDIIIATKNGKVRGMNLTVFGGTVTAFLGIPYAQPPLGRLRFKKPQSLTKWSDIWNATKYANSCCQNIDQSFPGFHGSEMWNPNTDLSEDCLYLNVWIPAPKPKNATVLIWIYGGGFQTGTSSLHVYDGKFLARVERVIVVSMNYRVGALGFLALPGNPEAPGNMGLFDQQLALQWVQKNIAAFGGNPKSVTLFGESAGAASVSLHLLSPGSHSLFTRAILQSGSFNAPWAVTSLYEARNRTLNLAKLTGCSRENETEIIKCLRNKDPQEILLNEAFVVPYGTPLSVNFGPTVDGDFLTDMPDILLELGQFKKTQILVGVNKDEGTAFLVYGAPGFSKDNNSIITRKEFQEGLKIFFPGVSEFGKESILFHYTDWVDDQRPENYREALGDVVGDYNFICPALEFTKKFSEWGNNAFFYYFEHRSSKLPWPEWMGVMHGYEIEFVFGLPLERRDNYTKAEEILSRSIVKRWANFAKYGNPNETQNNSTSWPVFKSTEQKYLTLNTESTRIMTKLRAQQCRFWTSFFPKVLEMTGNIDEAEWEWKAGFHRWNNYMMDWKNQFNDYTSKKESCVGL
Compound,IC50 (hAChE) [µM],"SI (selectivity index, hBuChE/hAChE) (hAChE)",IC50 (hBuChE; read-out: IC50 hBuChE) [µM],IC50 (hBuChE; IC50 hBuChE) [µM],other results
CC1(C)CC[C@]2(C(=O)NCCCCCNc3c4c(nc5ccccc35)CCCC4)CC[C@]3(C)C(=CCC4[C@@]5(C)CC[C@H](O)C(C)(C)C5CC[C@]43C)C2C1 (stereo partly drawn) [Compound A3],0.775 ± 0.28,3.59,2.78 ± 0.0607,–,–
Nc1c2c(nc3ccccc13)CCCC2 [Tacrine],–,–,–,–,percentage of apoptotic cells (HepG2 cells [1]): 18.90%; intracellular ROS levels (in words) (HepG2 cells [2]): significant hepatotoxicity; cytotoxicity to SH-SY5Y cells (cell viability) (SH-SY5Y cells; 50–100 μM): cytotoxic; cytotoxicity to HepG2 cells (cell viability) (HepG2 cells [3]; 50–100 μM): cytotoxic
CC1(C)CC[C@]2(C(=O)NCCCCCCNc3c4c(nc5cc(Cl)ccc35)CCCC4)CC[C@]3(C)C(=CCC4[C@@]5(C)CC[C@H](O)C(C)(C)C5CC[C@]43C)C2C1 (stereo partly drawn) [Compound B4],0.0144 ± 0.00189,>695.89,–,> 10,percentage of apoptotic cells (HepG2 cells [1]): 7.69%; intracellular ROS levels (in words) (HepG2 cells [2]): significantly lower than that in the tacrine group; effect on SH-SY5Y cell viability (SH-SY5Y cells; 50 μM): little effect; HepG2 cell viability rate (HepG2 cells [3]; 50 μM): close to that of the control group
CC1(C)CC[C@]2(C(=O)NCCCNc3c4c(nc5c(F)cccc35)CCCC4)CC[C@]3(C)C(=CCC4[C@@]5(C)CC[C@H](O)C(C)(C)C5CC[C@]43C)C2C1 (stereo partly drawn) [Compound G2],> 10,<0.09,–,0.921 ± 0.0587,–
"CC1(C)CC[C@]2(C(=O)NCCCNc3c4c(nc5c(Cl)cccc35)CCCC4)CC[C@]3(C)C(=CCC4[C@@]5(C)CC[C@H](O)C(C)(C)C5CC[C@]43C)C2C1 (stereo partly drawn) [Compound C2, N-(3-((5-chloro-1,2,3,4-tetrahydroacridin-9-yl)amino)propyl)-olean-12-en-28-amide]",> 10,–,> 10,–,–
CC1(C)CC[C@]2(C(=O)NCCCNc3c4c(nc5cc(F)ccc35)CCCC4)CC[C@]3(C)C(=CCC4[C@@]5(C)CC[C@H](O)C(C)(C)C5CC[C@]43C)C2C1 (stereo partly drawn) [Compound F2],> 10,–,–,> 10,–
"CC1(C)CC[C@]2(C(=O)NCCNc3c4c(nc5c(Cl)cccc35)CCCC4)CC[C@]3(C)C(=CCC4[C@@]5(C)CC[C@H](O)C(C)(C)C5CC[C@]43C)C2C1 (stereo partly drawn) [Compound C1, N-(2-((5-chloro-1,2,3,4-tetrahydroacridin-9-yl)amino)ethyl)-olean-12-en-28-amide]",> 10,–,> 10,–,–
"CC1(C)CC[C@]2(C(=O)NCCCCCNc3c4c(nc5c(F)cccc35)CCCC4)CC[C@]3(C)C(=CCC4[C@@]5(C)CC[C@H](O)C(C)(C)C5CC[C@]43C)C2C1 (stereo partly drawn) [Compound G4, N-(5-((5-fluoro-1,2,3,4-tetrahydroacridin-9-yl)amino)pentyl)-olean-12-en-28-amide]",> 10,<0.16,1.6 ± 0.0904,–,–
"CC1(C)CC[C@]2(C(=O)NCCCCCCNc3c4c(nc5c(Br)cccc35)CCCC4)CC[C@]3(C)C(=CCC4[C@@]5(C)CC[C@H](O)C(C)(C)C5CC[C@]43C)C2C1 (stereo partly drawn) [Compound E5, N-(6-((5-bromo-1,2,3,4-tetrahydroacridin-9-yl)amino)hexyl)-olean-12-en-28-amide]",> 10,–,> 10,–,–
"CC1(C)CC[C@]2(C(=O)NCCNc3c4c(nc5cc(F)ccc35)CCCC4)CC[C@]3(C)C(=CCC4[C@@]5(C)CC[C@H](O)C(C)(C)C5CC[C@]43C)C2C1 (stereo partly drawn) [Compound F1, N-(2-((6-fluoro-1,2,3,4-tetrahydroacridin-9-yl)amino)ethyl)-olean-12-en-28-amide]",> 10,–,> 10,–,–
CC1(C)CC[C@]2(C(=O)NCCCNc3c4c(nc5c(Br)cccc35)CCCC4)CC[C@]3(C)C(=CCC4[C@@]5(C)CC[C@H](O)C(C)(C)C5CC[C@]43C)C2C1 (stereo partly drawn) [Compound E2],–,–,–,> 10,IC50 (hAChE; [4]): > 10 µM
"CC1(C)CC[C@]2(C(=O)NCCCCNc3c4c(nc5cc(F)ccc35)CCCC4)CC[C@]3(C)C(=CCC4[C@@]5(C)CC[C@H](O)C(C)(C)C5CC[C@]43C)C2C1 (stereo partly drawn) [Compound F3, N-(4-((6-fluoro-1,2,3,4-tetrahydroacridin-9-yl)amino)butyl)-olean-12-en-28-amide]",–,–,–,> 10,IC50 (hAChE; [4]): > 10 µM
"CC1(C)CC[C@]2(C(=O)NCCNc3c4c(nc5cc(Br)ccc35)CCCC4)CC[C@]3(C)C(=CCC4[C@@]5(C)CC[C@H](O)C(C)(C)C5CC[C@]43C)C2C1 (stereo partly drawn) [Compound D1, N-(2-((6-bromo-1,2,3,4-tetrahydroacridin-9-yl)amino)ethyl)-olean-12-en-28-amide]",> 10,–,> 10,–,–
"CC1(C)CC[C@]2(C(=O)NCCCCCCNc3c4c(nc5c(F)cccc35)CCCC4)CC[C@]3(C)C(=CCC4[C@@]5(C)CC[C@H](O)C(C)(C)C5CC[C@]43C)C2C1 (stereo partly drawn) [Compound G5, N-(6-((5-fluoro-1,2,3,4-tetrahydroacridin-9-yl)amino)hexyl)-olean-12-en-28-amide]",> 10,<0.38,3.81 ± 1.04,–,–
